pKi: −log10 of the molar value. Counter-ions that a name gives are not always drawn.
Experiments:
[1] = biological target: HCV NS3 protease genotype 3a (3A-1) (Hepatitis C virus genotype 3a, UniProt Q81258); experiment: HCV NS3 protease time-resolved fluorescence (TRF) assay, genotype 3a; assay type: biochemical; conditions: Ki 3a
Procedure: (§1) The HCV NS3 protease inhibitory activity of the present compounds may be tested using assays known in the art. One such assay is HCV NS3 protease time-resolved fluorescence (TRF) assay as described below and in International Patent Application Publication No. WO2006/102087. Other examples of such assays are described in e.g., International Patent Application Publication No. WO2005/046712. The assay is performed in a final volume of 100 μl in assay buffer containing 50 mM HEPES, pH 7.5, 150 mM NaCl, 15% glycerol, 0.15% Triton X-100, 10 mM DTT, and 0.1% PEG 8000. NS3 protease is pre-incubated with various concentrations of inhibitors in DMSO for 30 minutes. The reaction is initiated by adding the TRF peptide substrate (final concentration 100 nM). NS3 mediated hydrolysis of the substrate is quenched after 1 hour at room temperature with 100 μl of 500 mM MES, pH 5.5. Product fluorescence is detected using either a VICTOR V2 or FUSION fluorophotometer (Perkin Elmer Life and Analytical Sciences) with excitation at 340 nm and emission at 615 nm with a 400 μs delay. Testing concentrations of different enzyme forms are selected to result in a signal to background ratio (S/B) of 10-30. IC50 values are derived using a standard four-parameter fit to the data. K; values are derived from IC50 values using the following formula, IC50=Ki(1+[S]/Km), Eqn (1), where [S] is the concentration of substrate peptide in the reaction and KM is the Michaelis constant. See Gallinari et al., 1999, Biochem. 38:5620-32; Gallinari et al., 1998, J. Virol. 72:6758-69; Taliani et al., 1996, Anal. Biochem. 240:60-67.
(§2) The HCV NS3 protease inhibitory activity was measured using the protease time-resolved fluorescence (TRF) assay as described below and in International Patent Application Publication No. WO 2006/102087. The assay was performed with HCV genotype 1b (BK) NS3 modified enzyme with a R155K mutation and genotype 3a (3A-1).
(§3) The assay was performed in a final volume of 50 μl in assay buffer containing 50 mM HEPES, pH 7.5, 150 mM NaCl, 15% glycerol, 0.15% TRITON X-100, 10 mM DTT, and 0.1% PEG 8000. NS3 and NS4A protease is pre-incubated with various concentrations of inhibitors in DMSO for 10 minutes. The reaction was initiated by adding the TRF peptide substrate (final concentration 25 nM) and NS3 mediated hydrolysis of the substrate proceeds for 6 hours at room temperature. Product fluorescence is detected using an Envision plate reader (Perkin Elmer) with excitation at 340 nm and emission at 615 nm with a 400 μs delay. Testing concentrations of the enzymes were selected to result in a signal to background ratio (S/B) of 5-20. IC50 values are derived using a standard four-parameter fit to the data.
(§4) NS3 and NS4A protease is pre-incubated with various concentrations of inhibitors in DMSO for 30 minutes. The reaction is initiated by adding the TRF peptide substrate (final concentration 100 nM). NS3 mediated hydrolysis of the substrate is quenched after 1 hour at room temperature with 100 μl of 500 mM MES, pH 5.5. Product fluorescence is detected using either a VICTOR V2 or FUSION fluorophotometer (Perkin Elmer Life and Analytical Sciences) with excitation at 340 nm and emission at 615 nm with a 400 μs delay. Testing concentrations of the enzymes are selected to result in a signal to background ratio (S/B) of 8-30. IC50 values are derived using a standard four-parameter fit to the data. Ki values are derived from IC50 values using the following formula, IC50=Ki(1+[S][…]), Eqn (1), where [S] is the concentration of substrate peptide in the reaction and KM is the Michaelis constant. See Gallinari et al., 1999, Biochem. 38:5620-32; Gallinari et al., 1998, J. Virol. 72:6758-69; and Taliani et al., 1996, Anal. Biochem. 240:60-67. ND means not determined.

[2] = biological target: T1, HCV genotype 1b (BK) NS3 modified enzyme with a R155K mutation (Hepatitis C virus genotype 1b, UniProt P26663, R1181K); experiment: HCV NS3 protease time-resolved fluorescence (TRF) assay, genotype 1b R155K; assay type: biochemical; conditions: Ki 1b R155K
T1 construct: HCV genotype 1b (BK) NS3 modified enzyme
Procedure: as §1, §2, §3, §4

[3] = genotype 1b (BK) NS3 R155K, single value

Row | SMILES | pKi [1] | pKi [2, 3] | pKi ([2]; first of two values printed in the cell (not explained)) | pKi ([2]; second of two values printed in the cell (not explained))
1 | C=C[C@@H]1C[C@]1(NC(=O)[C@@H]1C[C@@H]2CN1C(=O)[C@H](C(C)(C)C)NC(=O)O[C@@H]1C[C@H]1CCCCCc1c(nc3ccccc3c1OCCCN1CCC1)O2)C(=O)NS(=O)(=O)C1(C)CC1 [Example 133, (1aR,5S,8S,10R,22aR)-17-[3-(azetidin-1-yl)propoxy]-5-tert-butyl-N-[(1R,2S)-2-ethenyl-1-{[(1-methylcyclopropyl)sulfonyl]carbamoyl}cyclopropyl]-3,6-dioxo-1,1a,3,4,5,6,9,10,18,19,20,21,22,22a-tetradecahydro-8H-7,10-methanocyclopropa[18,19][1,10,3,6]dioxadiazacyclononadecino[11,12-b]quinoline-8-carboxamide] | 9.00 | 9.96 | – | –
2 | C=C[C@@H]1C[C@]1(NC(=O)[C@@H]1C[C@@H]2CN1C(=O)[C@H](C(C)(C)C)NC(=O)O[C@@H]1C[C@H]1CCCCCc1c(nc3ccccc3c1OCCN1CCOCC1)O2)C(=O)NS(=O)(=O)C1(C)CC1 [Example 113, (1aR,5S,8S,10R,22aR)-5-tert-butyl-N-[(1R,2S)-2-ethenyl-1-{[(1-methylcyclopropyl)sulfonyl]carbamoyl}cyclopropyl]-17-[2-(morpholin-4-yl)ethoxy]-3,6-dioxo-1,1a,3,4,5,6,9,10,18,19,20,21,22,22a-tetradecahydro-8H-7,10-methanocyclopropa[18,19][1,10,3,6]dioxadiazacyclononadecino[11,12-b]quinoline-8-carboxamide] | 8.80 | 10.05 | – | –
3 | C=C[C@@H]1C[C@]1(NC(=O)[C@@H]1C[C@@H]2CN1C(=O)[C@H](C1CCCC1)NC(=O)O[C@@H]1CCC[C@H]1CC/C=C/Cc1c(nc3ccccc3c1OP(=O)(OCC)OCC)O2)C(=O)NS(=O)(=O)C1CC1 [Example 38, (3aR,7S,10S,12R,21E,24aS)-7-cyclopentyl-10-({(1R,2S)-1-[(cyclopropylsulfonyl)carbamoyl]-2-ethenylcyclopropyl}carbamoyl)-5,8-dioxo-1,2,3,3a,5,6,7,8,11,12,20,23,24,24a-tetradecahydro-10H-9,12-methanocyclopenta[18,19][1,10,3,6]dioxadiazacyclononadecino[11,12-b]quinolin-19-yl diethyl phosphate] | 7.03 | 8.92 | – | –
4 | C=C[C@@H]1C[C@]1(NC(=O)[C@@H]1C[C@@H]2CN1C(=O)[C@H](C1CCCC1)NC(=O)O[C@@H]1CCC[C@H]1CCCCCc1c(nc3ccccc3c1OCC)O2)C(=O)NS(=O)(=O)C1CC1 [Example 24, (3aR,7S,10S,12R,24aR)-7-cyclopentyl-N-{(1R,2S)-1-[(cyclopropylsulfonyl)carbamoyl]-2-ethenylcyclopropyl}-19-ethoxy-5,8-dioxo-1,2,3,3a,5,6,7,8,11,12,20,21,22,23,24,24a-hexadecahydro-10H-9,12-methanocyclopenta[18,19][1,10,3,6]dioxadiazacyclononadecino[11,12-b]quinoline-10-carboxamide] | 8.04 | 9.41 | – | –
5 | O=C1N[C@@H](C2CCCC2)C(=O)N2C[C@@H](C[C@H]2C(=O)N[C@]2(C(=O)NS(=O)(=O)C3CC3)C[C@H]2C2CC2)Oc2nc3ccccc3c(O)c2C/C=C/CC[C@@H]2CCC[C@H]2O1 [Example 21, (3aR,7S,10S,12R,21E,24aS)-7-cyclopentyl-N-[(1S,2R)-2-[(cyclopropylsulfonyl)carbamoyl]-1,1′-bi(cyclopropyl)-2-yl]-19-hydroxy-5,8-dioxo-1,2,3,3a,5,6,7,8,11,12,20,23,24,24a-tetradecahydro-10H-9,12-methanocyclopenta[18,19][1,10,3,6]dioxadiazacyclononadecino[11,12-b]quinoline-10-carboxamide] | 8.02 | 9.29 | – | –
6 | C=C[C@@H]1C[C@]1(NC(=O)[C@@H]1C[C@@H]2CN1C(=O)[C@H](C1CCCC1)NC(=O)O[C@@H]1CCC[C@H]1CC/C=C/Cc1c(nc3ccccc3c1OCCN1CC3(CCC3)C1)O2)C(=O)NS(=O)(=O)C1(C)CC1 [Example 86, (3aR,7S,10S,12R,21E,24aS)-19-[2-(2-azaspiro[3.3]hept-2-yl)ethoxy]-7-cyclopentyl-N-[(1R,2S)-2-ethenyl-1-{[(1-methylcyclopropyl)sulfonyl]carbamoyl}cyclopropyl]-5,8-dioxo-1,2,3,3a,5,6,7,8,11,12,20,23,24,24a-tetradecahydro-10H-9,12-methanocyclopenta[18,19] [1,10,3,6]dioxadiazacyclononadecino [11,12-b]quinoline-10-carboxamide] | 8.36 | 9.64 | – | –
7 | C=C[C@@H]1C[C@]1(NC(=O)[C@@H]1C[C@@H]2CN1C(=O)[C@H](C1CCCCC1)NC(=O)O[C@@H]1C[C@H]1CCCCCc1c(nc3ccccc3c1OCCCNC1CC1)O2)C(=O)NS(=O)(=O)C1(C)CC1 [Example 241, N-(3-{[(1aR,5S,8S,10R,22aR)-5-cyclohexyl-8-{[(1R,2S)-2-ethenyl-1-{[(1-methylcyclopropyl)sulfonyl]carbamoyl}cyclopropyl]carbamoyl}-3,6-dioxo-1,1a,3,4,5,6,9,10,18,19,20,21,22,22a-tetradecahydro-8H-7,10-methanocyclopropa[18,19][1,10,3,6]dioxadiazacyclononadecino[11,12-b]quinolin-17-yl]oxy}propyl)cyclopropanaminium formate] | 8.55 | – | 10.68 | 9.79
8 | C=CC1C[C@]1(NC(=O)[C@@H]1C[C@@H]2CN1C(=O)[C@H](C(C)(C)C)NC(=O)O[C@@H]1CCC[C@H]1CCCCCc1c(nc3ccccc3c1OCCN1CCOCC1)O2)C(=O)NS(=O)(=O)C1(C(=C)C)CC1 (stereo partly drawn) [Example 62] | 7.07 | 8.80 | – | –
9 | C=C[C@@H]1C[C@]1(NC(=O)[C@@H]1C[C@@H]2CN1C(=O)[C@H](C1CCCC1)NC(=O)O[C@@H]1CCC[C@H]1CCCCCc1c(nc3ccccc3c1O)O2)C(=O)NS(=O)(=O)C1CC1 [Example 34, (3aR,7S,10S,12R,24aR)-7-cyclo pentyl-N-{(1R,2S)-1-[(cyclopropylsulfonyl)carbamoyl]-2-ethenylcyclopropyl}-19-hydroxy-5,8-dioxo-1,2,3,3a,5,6,7,8,11,12,20,21,22,23,24,24a-hexadecahydro-10H-9,12-methanocyclopenta [18,19][1,10,3,6]dioxadiazacyclononadecino [11,12-b]quinoline-10-carboxamide] | 8.74 | 10.00 | – | –
10 | C=C[C@@H]1C[C@]1(NC(=O)[C@@H]1C[C@@H]2CN1C(=O)[C@H](C(C)(C)C)NC(=O)O[C@@H]1C[C@H]1CCCCCc1c(nc3cc(C)ccc3c1OCCCN1CCCC1)O2)C(=O)NS(=O)(=O)C1(C)CC1 [Example 146, (1aR,5S,8S,10R,22aR)-5-tert-butyl-N-[(1R,2S)-2-ethenyl-1-{[(1-methylcyclopropyl)sulfonyl]carbamoyl}cyclopropyl]-14-methyl-3,6-dioxo-17-[3-(pyrrolidin-1-yl)propoxy]-1,1a,3,4,5,6,9,10,18, 19,20,21,22,22a-tetradecahydro-8H-7,10-methano cyclopropa[18,19][1,10,3,6] dioxadiazacyclonona decino[11,12-b]quinoline-8-carboxamide] | 9.17 | 10.27 | – | –

— patent publication US9328138B2 (priority 2011, dated 2016)
